Results: article PMC7619385 (ACS infectious diseases, 2025)
Where a name gives a salt, the structure may show the parent alone. Read-outs that look alike come from different tables or passages of the source.

Target: T1, LmxCLK1 (Leishmania mexicana, UniProt E9AMP2)
T1 sequence (E9AMP2 1-422): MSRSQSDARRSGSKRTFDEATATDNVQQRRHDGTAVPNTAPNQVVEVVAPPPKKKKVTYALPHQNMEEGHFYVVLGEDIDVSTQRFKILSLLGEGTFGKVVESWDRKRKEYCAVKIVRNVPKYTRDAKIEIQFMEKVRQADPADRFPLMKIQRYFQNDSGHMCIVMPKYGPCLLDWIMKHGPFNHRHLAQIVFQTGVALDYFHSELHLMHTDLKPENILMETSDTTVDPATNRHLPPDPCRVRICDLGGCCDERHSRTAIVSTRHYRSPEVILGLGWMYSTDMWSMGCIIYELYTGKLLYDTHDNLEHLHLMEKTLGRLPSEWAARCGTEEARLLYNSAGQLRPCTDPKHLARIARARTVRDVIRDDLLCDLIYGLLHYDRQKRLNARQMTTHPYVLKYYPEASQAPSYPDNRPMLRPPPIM
Assay: biochemical
Assay type: binding

[1] = DSF, 10 µM compound, 2 µM LmxCLK1, Run 1, read-out: ΔTm Run 1
[2] = DSF, 10 µM compound, 2 µM LmxCLK1, Run 2, read-out: ΔTm Run 2
[3] = DSF, 10 µM compound, 2 µM LmxCLK1, mean of two runs, read-out: ΔTm Average
[4] = DSF, 10 µM compound, 2 µM LmxCLK1, Run 1
[5] = DSF, 10 µM compound, 2 µM LmxCLK1, mean of two runs
[6] = DSF, 10 µM compound, 2 µM LmxCLK1, Run 2

Compound	ΔTm Run 1 [4] [°C]	ΔTm Average [5] [°C]	ΔTm Run 2 [6] [°C]	also measured
Nc1nc(N)c(N=O)c(OCC2CCCCC2)n1 [NU6027]	–	–	–	ΔTm at 10 µM (read-out: ΔTm Average): 0 °C; ΔTm at 10 µM (read-out: ΔTm Run 1): 0.1 °C; ΔTm at 10 µM (read-out: ΔTm Run 2): -0.2 °C
NC(=O)c1ncn([C@@H]2O[C@H](CO)[C@@H](O)[C@H]2O)c1N [Acadesine]	–	–	–	ΔTm at 10 µM [1]: -0.2 °C; ΔTm at 10 µM [2]: -0.2 °C; ΔTm at 10 µM [3]: -0.2 °C
CNC(=O)c1cc(Oc2ccc(NC(=O)Nc3ccc(Cl)c(C(F)(F)F)c3)cc2)ccn1 [Sorafenib Tosylate]	0.3	0.3	–	ΔTm at 10 µM [2]: 0.2 °C
Cc1[nH]c(/C=C2\C(=O)Nc3ccccc32)c(C)c1CCC(=O)O [TSU-68 (SU6668)]	0.1	0.0	-0.1	–
NC1(Cc2ccc(Cl)cc2)CCN(c2ncnc3[nH]ccc23)CC1 [CCT128930]	0.8	0.7	0.6	–
C=CC(=O)Nc1ccc2ncnc(Nc3cccc(Br)c3)c2c1 [PD168393]	0.3	-0.2	-0.7	–
CN(c1ncccc1CNc1nc(Nc2ccc3c(c2)CC(=O)N3)ncc1C(F)(F)F)S(C)(=O)=O [PF-00562271]	–	–	–	ΔTm Average: -0.1; ΔTm Run 1: 0 °C; ΔTm Run 2: -0.3
O=c1cc(N2CCOCC2)oc2c(-c3cccc4c3sc3ccccc34)cccc12 [NU7441 (KU-57788)]	0.0	-0.1	-0.2	–
C[C@]1(O)C[C@@H](c2nc(-c3ccc4ccc(-c5ccccc5)nc4c3)c3c(N)nccn32)C1 [OSI-906 (Linsitinib)]	0.0	-0.2	-0.3	–
Clc1ccc(C2(c3ccc(-c4cn[nH]c4)cc3)CCNCC2)cc1 [AT7867]	1.2	0.9	0.7	–
S=C(NCc1ccc2c(c1)OCO2)N1CCN(c2ncnc3c2oc2ccccc23)CC1 [Amuvatinib (MP-470)]	0.1	0.1	0.0	–
CCn1c2ccccc2c2cc(Nc3ccnc(NCCCN4CCOCC4)n3)ccc21 [EHop-016]	-0.1	0.0	0.0	–
COc1cc2nccc(Oc3ccc(NC(=O)C4(C(=O)Nc5ccc(F)cc5)CC4)cc3)c2cc1OC [Cabozantinib (XL184)]	0.3	0.0	-0.2	–
Cc1cnc(-c2cnc(NCCNc3ccc(C#N)cn3)nc2-c2ccc(Cl)cc2Cl)[nH]1.Cl [CHIR-99021 (CT99021) HCl]	0.0	0.0	0.0	–
COc1ccccc1-c1cc(Nc2cccc(CS(N)(=O)=O)c2)ncn1 [LDC000067]	-0.1	-0.1	0.0	–
C#Cc1cccc(Nc2ncnc3cc4c(cc23)OCCOCCOCCO4)c1 [Icotinib]	–	–	–	ΔTm at 10 µM [1]: -0.3 °C; ΔTm at 10 µM [2]: -0.2 °C; ΔTm at 10 µM [3]: -0.3 °C
O=C(NC(NC(=S)Nc1ccc(F)c([N+](=O)[O-])c1)C(Cl)(Cl)Cl)C(c1ccccc1)c1ccccc1 (centres unmarked) [CGK 733]	-0.6	-0.3	0.0	–
Nc1ccc(C(=O)Nc2cccc(-c3nc(N4CCOCC4)c4oc5ncccc5c4n3)c2)cn1 [YM201636]	–	–	–	ΔTm Run 1: 0.4 °C; ΔTm Run 2: 0 °C
CN1CCN(C2CCN(C(=O)Nc3cc(Oc4ccc(NC(=O)C5(C(=O)Nc6ccc(F)cc6)CC5)c(F)c4)ccn3)CC2)CC1 [Golvatinib (E7050)]	–	–	–	ΔTm at 10 µM (read-out: ΔTm Average): 0.6 °C; ΔTm at 10 µM (read-out: ΔTm Run 1): 0.5 °C; ΔTm at 10 µM (read-out: ΔTm Run 2): 0.7 °C
CCN(CCO)CCCOc1ccc2c(Nc3cc(CC(=O)Nc4cccc(F)c4)[nH]n3)ncnc2c1 [Barasertib (AZD1152-HQPA)]	0.4	0.1	-0.1	–
Cn1cc(-c2cnn3c(N)c(Br)c([C@@H]4CCCNC4)nc23)cn1 [MK-8776 (SCH 900776)]	–	–	–	ΔTm Average: 0.3 °C; ΔTm Run 1: 0.5 °C; ΔTm Run 2: 0 °C
